According to paper PMC10793205, “Differential transmetallation of complexes of the anti-cancer thiosemicarbazone, Dp4e4mT: effects on anti-proliferative efficacy, redox activity, oxy-myoglobin and oxy-hemoglobin oxidation” (Chemical Science, 2023):

What was measured:
[1] = target: T1, oxy-Hb in intact human erythrocytes (Homo sapiens, UniProt P68871+P69905); assay: Oxidation of oxy-Hb in intact human erythrocytes; format: cell-based; details: 10 μM, 3 h/37 °C; for oxy-Hb oxidation to met-Hb in erythrocytes: control 0.5%
T1 construct: Physiologically, oxy-Hb is found in erythrocytes; endogenous in cells; host or cells: intact human erythrocytes from fresh blood of healthy donors
T1 sequence (P69905 2-142 limits assumed): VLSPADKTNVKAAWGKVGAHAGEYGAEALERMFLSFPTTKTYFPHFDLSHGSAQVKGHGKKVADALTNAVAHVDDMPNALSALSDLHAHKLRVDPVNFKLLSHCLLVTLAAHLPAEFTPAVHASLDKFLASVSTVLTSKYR
T1 sequence (P68871 2-147 limits assumed): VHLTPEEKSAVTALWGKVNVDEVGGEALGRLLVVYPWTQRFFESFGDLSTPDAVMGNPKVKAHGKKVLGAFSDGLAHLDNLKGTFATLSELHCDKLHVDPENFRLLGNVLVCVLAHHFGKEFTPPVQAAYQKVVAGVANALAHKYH
Protocol: Fig. 7 (A and B) Investigation of the effects of Dp4e4mT and its Fe(III), Co(III), Ni(II), Cu(II), Zn(II), Ga(III), and Pd(II) complexes versus DFO, Dp44mT, DpC and their Fe(III) complexes (10 μM) on met-Hb generation (% zero time) after an incubation of 1–3 h/20 °C with purified oxy-Hb (40 μM). (C) Investigation of the effects of Dp4e4mT and its Fe(III), Co(III), Ni(II), Cu(II), Zn(II), Ga(III), or Pd(II) complexes relative to the positive controls DFO, Dp44mT, DpC, and their Fe(III) complexes (10 μM) on oxy-Hb oxidation in intact human erythrocytes after a 3 h/37 °C incubation. Results are mean ± SD (3 experiments).
Physiologically, oxy-Hb is found in erythrocytes, and in the current investigation, the ligands and complexes (10 μM) were incubated with intact human erythrocytes for 3 h/37 °C to assess their effects on oxy-Hb oxidation (Fig. 7C). As expected from our previous studies,[28,39] […]
In experiments examining the activity of the agents, all complexes were dissolved in 1,2-propanediol, then diluted to 10 µM in PBS (pH 7.2). […]
1800; Shimadzu, Kyoto, Japan). Concentrations of met-Mb and met-Hb, as well as reduced-Mb and reduced-Hb, were determined at 409 nm and 435 nm, respectively. Concentrations of oxy-Mb and oxy-Hb were determined at 544 nm and 582 nm, respectively. 17 Oxidation of Oxy-Hb in Human Erythrocytes
Oxidation of oxy-Hb in human erythrocytes was performed by standard methods using fresh blood from healthy donors after collection in Vacutainer® collection tubes (BD, Plymouth, UK).8 Erythrocytes centrifuged (480 xg/5 min/4°C) and then washed in HBSS, and subsequently resuspended in this buffer. Incubation of the erythrocytes (15% hematocrit) in the absence or presence of the agents (10 μM) was performed for 3 h/37°C. The erythrocytes were […]

AsPC-1 cells = assay: MTT cellular proliferation assay, AsPC-1 pancreatic adenocarcinoma cells; format: cell-based, human; details: for IC50: 37 °C, MTT, mean ± SD (3 experiments); for Therapeutic index AsPC-1: IC50 of MRC-5 cells/IC50 of AsPC-1 cells, 72 h/37 °C
Protocol: The anti-proliferative activity of Dp4e4mT relative to its complexes with Fe(III), Co(III), Ni(II), Cu(II), Zn(II), Ga(III), and Pd(II) was examined over incubation periods of 24-, 48-, and 72 h/37 °C (Table 2). These studies were performed using human SK-N-MC neuroepithelioma and AsPC-1 pancreatic adenocarcinoma cells that we have previously examined to assay other ligands.[15,28,43] […]
All cell lines were procured from the American Type Culture Collection (ATCC; Manassas, VA). The SK-N-MC neuroepithelioma cell line and the mortal MRC-5 fibroblasts were cultured in minimum essential medium (Sigma-Aldrich), while the AsPC-1 cell line was cultured in Roswell Park Memorial Institute 1640 medium (Thermo Fisher Scientific, MA, USA). Both media were supplemented with 10% fetal calf serum, non-essential amino acids (1 mM), sodium pyruvate (1 mM), L-glutamine (2 mM), penicillin (100 U/mL), streptomycin (100 U/mL), and Fungizone (0.5 µg/mL). Cells were maintained at 37 °C in an incubator under a humidified atmosphere with 5% CO 2, following established protocols. 11 Cellular Proliferation Assay
Cellular proliferation was evaluated through the established 3-(4,5-dimethylthiazol-2-yl)-2,5-diphenyltetrazolium bromide (MTT) proliferation assay, validated by viable cell counts.12 […]
Ligands and complexes were dissolved in DMSO to make a stock solution of 10 mM, subsequently diluted in culture media. For cell culture experiments, the DMSO's maximum concentration remained below 0.5% (v/v), with no discernible impact on proliferation.12 MTT […]
Trypan blue staining.12 Analysis of the data was executed employing MARS Data Analysis Software (BMG LabTech; version 3.30). The concentration of agents necessary to inhibit cellular proliferation by 50% (IC 50) was then calculated. […]

[2] = Transmetallation kinetics with Cu(OAc)2 in DMSO (time-resolved UV-vis); format: physicochemical; details: for Observed pseudo first order rate constant kobs, Cu(OAc)2 (only or first step): 10-fold excess of Cu(OAc)2 in DMSO, 25 °C
Protocol: The capacity of the Fe(III), Ni(II), Co(III), Zn(II), Ga(III), and Pd(II) complexes of Dp4e4mT to transmetallate with Cu(II) and/or Fe(III) to result in redox active Cu(II) and Fe(III) complexes could be critical in understanding their anti-proliferative efficacy, redox activity, and ability to oxidize oxy-Mb and oxy-Hb. To examine this, LC-MS spectrometry was performed in DMSO after the addition of 1 equivalent of FeCl3 or Cu(OAc)2 and the solutions then incubated for 24 h/20 °C due to slow reaction kinetics. This solution was then diluted 1 : 1 in methanol and LC-MS performed using a mobile phase consisting of 90% MeOH, 9.9% water, and 0.1% formic acid (Fig. S2–S9 ^†). These investigations were supported by EPR studies in DMSO after the addition of 1 equivalent of FeCl3 or Cu(OAc)2 incubated under the same conditions (Fig. 3A–G). As a third method to investigate transmetallation, kinetic studies using time-resolved UV-vis spectroscopy were performed under pseudo-first order conditions with a 10-fold excess of FeCl3 or Cu(OAc)2 in DMSO (Fig. S11–S16 ^†). The pseudo-first order rate constants were calculated from the time-dependent UV-vis spectroscopy data (at all wavelengths) with Reactlab Kinetics[49] and collected in Table S2. ^† […]
Time-dependent UV-Vis absorption spectra were measured on an Agilent 8453 diode array UV−Vis spectrophotometer, equipped with a thermostatted (± 0.1 °C) multicell transport cooled by a Huber Ministat 230 recirculating cooling bath. Spectral analysis was carried out with Reactlab Kinetics. 10 […]
Table S2. Observed pseudo first order rate constants (k obs, s−1) for reactions of each Dp4e4mT complex with a 10-fold excess of Cu(OAc) 2 or FeCl 3 in DMSO or water (pH 7.4 or 5.0) at 25 °C. […]
[Co(Dp4e4mT)2]+ No reaction No reaction No reaction No reaction […]
a Reaction could not be deciphered by UV-Vis spectroscopy; bchlorido ligand hydrolysis

[3] = Homo sapiens, ASPC1, AsPC-1, 24 h
[4] = Homo sapiens, ASPC1, AsPC-1, 48 h
[5] = Homo sapiens, ASPC1, AsPC-1, 72 h

Structure (SMILES): CCN(C)C([S-])=NN=C(c1ccccn1)c1ccccn1.[Cl-].[Cu+2] [[Cu(Dp4e4mT)Cl]]
- oxy-Hb oxidation in erythrocytes versus the control (in words) [1]: negligible effects on oxy-Hb oxidation
- IC50 (AsPC-1 cells; AsPC-1, 24 h): 1074 ± 6 nM
- IC50 (AsPC-1 cells; AsPC-1, 48 h): 42 ± 6 nM
- IC50 (AsPC-1 cells; AsPC-1, 72 h): 3 ± 1 nM
- Therapeutic index AsPC-1 (AsPC-1 cells): 130

Structure (SMILES): CN(C(=S)NN=C(c1ccccn1)c1ccccn1)C1CCCCC1 [DpC, di-2-pyridylketone 4-cyclohexyl-4-methyl-3-thiosemicarbazone, reference compound]
- oxy-Hb oxidation in erythrocytes versus the control (in words) [1]: did not induce any significant (p > 0.05) increase in oxy-Hb oxidation
- IC50 (AsPC-1 cells; [3]): 4921 ± 34 nM
- IC50 (AsPC-1 cells; [4]): 87 ± 34 nM
- IC50 (AsPC-1 cells; [5]): 18 ± 7 nM
- Therapeutic index AsPC-1 (AsPC-1 cells): 165

Structure (SMILES): CN(C)C(=S)NN=C(c1ccccn1)c1ccccn1 [Dp44mT, di-2-pyridylketone 4,4-dimethyl-3-thiosemicarbazone, reference compound]
- oxy-Hb oxidation to met-Hb in erythrocytes [1]: 2.3 % of the total
- IC50 (AsPC-1 cells; [3]): 4640 ± 71 nM
- IC50 (AsPC-1 cells; [4]): 42 ± 6 nM
- IC50 (AsPC-1 cells; [5]): 15 ± 3 nM
- Therapeutic index AsPC-1 (AsPC-1 cells): 71

Structure (SMILES): CCN(C)C([S-])=NN=C(c1ccccn1)c1ccccn1.CCN(C)C([S-])=NN=C(c1ccccn1)c1ccccn1.[Ga+3] [[Ga(Dp4e4mT)2]^+]
- t½, transmetallation with Cu(OAc)2 ([2]; Cu(OAc)2 in DMSO): 3 to 4 h
- oxy-Hb oxidation in erythrocytes versus the control (in words) [1]: slight effect
- oxy-Hb oxidation to met-Hb in erythrocytes [1]: 1.3 % of the total
- IC50 (AsPC-1 cells; AsPC-1, 24 h): 2431 ± 15 nM
- IC50 (AsPC-1 cells; AsPC-1, 24 h, listed as Dp4e4mT Ga(III) complex): 1730 to 2430 nM
- IC50 (AsPC-1 cells; AsPC-1, 48 h): 47 ± 6 nM
- IC50 (AsPC-1 cells; AsPC-1, 72 h): 5 ± 1 nM
- Therapeutic index AsPC-1 (AsPC-1 cells): 154

Structure (SMILES): CCN(C)C([S-])=NN=C(c1ccccn1)c1ccccn1.CCN(C)C([S-])=NN=C(c1ccccn1)c1ccccn1.[Ni+2] [[Ni(Dp4e4mT)2]]
- t½, transmetallation with Cu(OAc)2 ([2]; Cu(OAc)2 in DMSO): ~2 h
- oxy-Hb oxidation in erythrocytes versus the control (in words) [1]: negligible effects on oxy-Hb oxidation
- oxy-Hb oxidation in erythrocytes versus the control (in words) ([1]; listed as Dp4e4mT Ni(II) complex): no (p > 0.05) significant effect on oxy-Hb oxidation
- IC50 (AsPC-1 cells; AsPC-1, 24 h): > 25000 nM
- IC50 (AsPC-1 cells; AsPC-1, 48 h): 234 ± 83 nM
- IC50 (AsPC-1 cells; AsPC-1, 72 h): 76 ± 54 nM
- Therapeutic index AsPC-1 (AsPC-1 cells): 62

Structure (SMILES): CCN(C)C(=S)NN=C(c1ccccn1)c1ccccn1 [Dp4e4mT, di-2-pyridylketone-4-ethyl-4-methyl-3-thiosemicarbazone]
- oxy-Hb oxidation to met-Hb in erythrocytes [1]: 1.9 % of the total
- IC50 (AsPC-1 cells; [3]): 3780 ± 91 nM
- IC50 (AsPC-1 cells; [4]): 45 ± 8 nM
- IC50 (AsPC-1 cells; [5]): 9 ± 2 nM
- Therapeutic index AsPC-1 (AsPC-1 cells): 120

Structure (SMILES): CCN(C)C([S-])=NN=C(c1ccccn1)c1ccccn1.CCN(C)C([S-])=NN=C(c1ccccn1)c1ccccn1.[Co+3] [[Co(Dp4e4mT)2]^+]
- Observed pseudo first order rate constant kobs, Cu(OAc)2 (only or first step) [2]: No reaction
- oxy-Hb oxidation in erythrocytes versus the control (in words) [1]: negligible effects on oxy-Hb oxidation
- oxy-Hb oxidation in erythrocytes versus the control (in words) ([1]; listed as Dp4e4mT Co(III) complex): no (p > 0.05) significant effect on oxy-Hb oxidation
- IC50 (AsPC-1 cells; AsPC-1, 24 h): 9522 ± 91 nM
- IC50 (AsPC-1 cells; AsPC-1, 48 h): 2680 ± 78 nM
- IC50 (AsPC-1 cells; AsPC-1, 72 h): 1570 ± 257 nM
- Therapeutic index AsPC-1 (AsPC-1 cells): 2

Structure (SMILES): CCN(C)C([S-])=NN=C(c1ccccn1)c1ccccn1.[Cl-].[Pd+2] [[Pd(Dp4e4mT)Cl]]
- Observed pseudo first order rate constant kobs, Cu(OAc)2 (only or first step) [2]: No reaction
- oxy-Hb oxidation in erythrocytes versus the control (in words) [1]: negligible effects on oxy-Hb oxidation
- oxy-Hb oxidation in erythrocytes versus the control (in words) ([1]; listed as Dp4e4mT Pd(II) complex): no (p > 0.05) significant effect on oxy-Hb oxidation
- IC50 (AsPC-1 cells; AsPC-1, 24 h): > 25000 nM
- IC50 (AsPC-1 cells; AsPC-1, 48 h): 1340 ± 74 nM
- IC50 (AsPC-1 cells; AsPC-1, 72 h): 262 ± 78 nM
- Therapeutic index AsPC-1 (AsPC-1 cells): 3

Structure (SMILES): CCN(C)C([S-])=NN=C(c1ccccn1)c1ccccn1.CCN(C)C([S-])=NN=C(c1ccccn1)c1ccccn1.[Fe+3] [[Fe(Dp4e4mT)2]^+]
- t½, reaction with Cu(OAc)2, first step ([2]; Cu(OAc)2 in DMSO, first of two consecutive first order steps): ~6 min
- t½, reaction with Cu(OAc)2, second step ([2]; Cu(OAc)2 in DMSO, second of two consecutive first order steps): ~1 h
- oxy-Hb oxidation to met-Hb in erythrocytes [1]: 4.8 % of the total
- IC50 (AsPC-1 cells; AsPC-1, 24 h): 22380 ± 58 nM
- IC50 (AsPC-1 cells; AsPC-1, 48 h): 1580 ± 77 nM
- IC50 (AsPC-1 cells; AsPC-1, 72 h): 201 ± 31 nM
- Therapeutic index AsPC-1 (AsPC-1 cells): 9

Structure (SMILES): CCN(C)C([S-])=NN=C(c1ccccn1)c1ccccn1.CCN(C)C([S-])=NN=C(c1ccccn1)c1ccccn1.[Zn+2] [[Zn(Dp4e4mT)2]]
- Observed pseudo first order rate constant kobs, Cu(OAc)2 (only or first step) [2]: > 0.1 s⁻¹
- oxy-Hb oxidation in erythrocytes versus the control (in words) [1]: negligible effects on oxy-Hb oxidation
- oxy-Hb oxidation in erythrocytes versus the control (in words) ([1]; listed as Dp4e4mT Zn(II) complex): no (p > 0.05) significant effect on oxy-Hb oxidation
- Therapeutic index AsPC-1 (AsPC-1 cells): 125
